How the values were obtained:
[1] = molecular target: T1, human full-length glucocorticoid receptor (Homo sapiens, UniProt P04150); test: Glucocorticoid Receptor Binding Assay (II), fluorescence polarization competitor kit (Fluormone GS1); settings: GR Binding Assay (II)
T1 construct: recombinantly expressed human full-length glucocorticoid receptor; purchased PanVera Co., Madison, Wis; P2816
T1 sequence (P04150 1-777): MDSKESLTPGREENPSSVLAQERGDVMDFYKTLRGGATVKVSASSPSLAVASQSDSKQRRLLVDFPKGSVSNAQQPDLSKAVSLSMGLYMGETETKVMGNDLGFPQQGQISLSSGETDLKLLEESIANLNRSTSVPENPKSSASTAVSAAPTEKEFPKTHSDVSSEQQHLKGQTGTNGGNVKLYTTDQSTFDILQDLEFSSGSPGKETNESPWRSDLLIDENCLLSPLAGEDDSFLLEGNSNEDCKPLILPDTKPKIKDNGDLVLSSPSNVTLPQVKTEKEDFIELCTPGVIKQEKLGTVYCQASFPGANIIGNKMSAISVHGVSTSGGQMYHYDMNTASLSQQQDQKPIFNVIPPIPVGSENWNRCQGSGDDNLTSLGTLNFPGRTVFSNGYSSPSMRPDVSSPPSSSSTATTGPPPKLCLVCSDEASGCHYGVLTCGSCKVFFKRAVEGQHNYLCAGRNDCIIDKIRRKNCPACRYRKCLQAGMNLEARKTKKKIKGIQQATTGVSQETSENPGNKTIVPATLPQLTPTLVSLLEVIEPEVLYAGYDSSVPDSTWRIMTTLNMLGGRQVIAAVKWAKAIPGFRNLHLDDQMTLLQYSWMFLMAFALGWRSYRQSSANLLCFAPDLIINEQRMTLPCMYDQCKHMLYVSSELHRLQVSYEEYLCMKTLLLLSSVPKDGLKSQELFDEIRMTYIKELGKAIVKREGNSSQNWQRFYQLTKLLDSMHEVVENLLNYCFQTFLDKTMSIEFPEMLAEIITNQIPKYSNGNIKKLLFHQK
In short: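 Cell lysate with recombinant receptor incubated with 1 nM Fluormone GS1 tracer, with or without test compound, for one hour at room temperature. Binding read as displacement by fluorescence polarization.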

[2] = molecular target: T2, human glucocorticoid receptor (Homo sapiens, UniProt P04150); test: Glucocorticoid Receptor Binding Assay (I), fluorescence polarization competitor kit (Fluormone GS Red); settings: GR Binding Assay (I)
T2 construct: purified human recombinant full-length glucocorticoid receptor; purchased Invitrogen Part #2893
T2 sequence (P04150 1-777): T1 sequence (P04150 1-777)
Protocol: Glucocorticoid Receptor Binding Assay (I)^a
In order to assess the affinity of test compounds for the human glucocorticoid receptor, a commercially available kit was used (Glucocorticoid Receptor Competitor Assay Kit, Invitrogen Part #2893). Briefly, purified human recombinant full-length glucocorticoid receptor (2 nM) was mixed with fluorescently labeled glucocorticoid (1 nM Fluormone GS Red) in the presence or absence of test compound. After two hour incubation at room temperature in the dark, the fluorescence polarization (FP) of the samples was measured. […] Test compounds were analyzed in the concentration range from 8.5 E-05 μM to 5 μM.

Row | Ki [1] | Ki [2] | SMILES
1 | 12.9 nM | 18.7 nM | CC(C)(C(=O)Nc1nccs1)[C@H](c1ccccc1)c1ccc(O)cc1 [Example 326, (3R)-3-(4-hydroxyphenyl)-2,2-dimethyl-3-phenyl-N-1,3-thiazol-2-ylpropanamide]
2 |  | 104 nM | CC(C)CC(c1ccc(-c2ccc3c(c2)CCO3)cc1)C(C)(C)C(=O)Nc1nncs1 (stereo not drawn) [Example 441, 3-(4-(2,3-dihydro-1-benzofuran-5-yl)phenyl)-2,2,5-trimethyl-N-1,3,4-thiadiazol-2-ylhexanamide]

More lines, now with the values behind:

Row | SMILES | Ki [1] | Ki [2]
3 | CC(C)(C(=O)Nc1nccs1)C(c1ccc(N2CCOCC2)cc1)c1cccc(F)c1 (single isomer, unassigned) [Example 254, 3-(3-fluorophenyl)-2,2-dimethyl-3-(4-(4-morpholinyl)phenyl)-N-1,3-thiazol-2-ylpropanamide] | 25.8 nM | 104 nM
4 | CC(C)(C(=O)Nc1nncs1)C(c1ccc(N2CCOCC2)cc1)c1cccc(F)c1 (single isomer, unassigned) [Example 256, 3-(3-fluorophenyl)-2,2-dimethyl-3-(4-(4-morpholinyl)phenyl)-N-1,3,4-thiadiazol-2-ylpropanamide] | 121 nM | 125 nM
5 | Cc1cccc(C(c2ccc(N3CCOCC3)cc2)C(C)(C)C(=O)Nc2nncs2)c1 (stereo not drawn) [Example 235, 2,2-dimethyl-3-(3-methylphenyl)-3-(4-(4-morpholinyl)phenyl)-N-1,3,4-thiadiazol-2-ylpropanamide] | 13.6 nM | 5.19 nM
